Test results taken from patent US8754118B2, “Atropisomer of pyrrole derivative” (Daiichi Sankyo Company, Limited, priority 2007, dated 2014).
pIC50: −log10 of the molar value.

How the values were obtained:
[1] = target: T1, human mineralocorticoid receptor (hMR) ligand-binding domain (GAL4-hMR receptor) (Homo sapiens, UniProt P08235); test: GAL4-hMR luciferase reporter assay in HEK293 cells in the presence of 1 nM aldosterone (mineralocorticoid receptor antagonistic activity); format: cell-based; conditions: for pIC50: concentration giving Imax/2, HEK293, 1 nM aldosterone present, overnight incubation, read-out: ICmax50; for Imax: maximum value from the graph of relative luciferase activity, DMSO control = 0%, 1 nM aldosterone control = 100%
T1 construct: expressed in transfected cells; host or cells: HEK293
T1 sequence (P08235 726-964 limits assumed): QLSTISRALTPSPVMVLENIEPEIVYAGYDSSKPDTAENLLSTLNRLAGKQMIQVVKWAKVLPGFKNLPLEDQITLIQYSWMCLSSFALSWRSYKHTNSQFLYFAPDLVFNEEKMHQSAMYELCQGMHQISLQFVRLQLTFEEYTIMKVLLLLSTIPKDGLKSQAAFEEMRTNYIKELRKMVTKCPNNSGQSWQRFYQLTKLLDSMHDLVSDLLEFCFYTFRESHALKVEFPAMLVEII
Description: A plasmid pM-hMR-LBD which is obtained by ligation of a ligand-binding domain (LBD, corresponding to a region of about 308 amino acids at the carboxy terminus) of human mineralocorticoid receptor (hMR, NM_000901) to a DNA-binding domain (corresponding to a region of 147 amino acids at the amino terminus) of a yeast transcription factor GAL4 and expresses GAL4-hMR receptor was constructed. Using a reporter plasmid which has a sequence binding to the DNA-binding domain of GAL4 (UAS sequence) and contains a luciferase gene (such as pFR-Luc, a plasmid available from Stratagene Cloning Systems), a reporter assay was performed.
The previously obtained plasmid pM-hMR-LBD and the reporter plasmid were transfected into a human fetus-derived renal cell line HEK293 by the lipofection method. On the following day, the cells were treated with trypsin and collected. A white 96-well plate (manufactured by Costar, Inc.) was prepared, and the cells were dispensed into each well in an amount of 95 μL using a DMEM medium containing 5% FBS (fetal bovine serum) which had been treated with activated charcoal.
As for each test compound, solutions obtained by dissolving the test compound in dimethyl sulfoxide at predetermined concentrations were used, and the solutions were appropriately diluted with medium and added to the cells in the white 96-well plate to give a final concentration of 0.1%. When the test compound was added, 1 nM aldosterone was allowed to be present. A well group to which dimethyl sulfoxide was added was assigned Control 1 group; and a well group to which 1 nM aldosterone was added was assigned Control 2 group. After the addition, the plate was incubated overnight.
On the following day, the medium was removed, and a luciferase substrate (Wako Pure Chemical Industries, Ltd.) was prepared according to the package insert and added to each well in an amount of 50 μL, and then, the plate was stirred for about 30 minutes. The luminescence intensity of each well was measured using Analyst (manufactured by Molecular Devices Corporation) and taken as the luciferase activity. The luciferase activity value of Control 1 group was taken as 0%, the luciferase activity value of Control 2 group was taken as 100%, and relative luciferase activity values for the respective doses of the test compound in the test compound addition group were plotted to create a graph. From the graph, the maximum value was calculated as Imax (%), and the concentration of the test compound showing the value of Imax/2 was calculated as ICmax50 (M). In Table 1, ICmax50 values are shown.

[2] = Plasma pharmacokinetics after oral administration to cynomolgus monkeys (LC-MS/MS); format: in vivo; conditions: male cynomolgus monkey, 3 mg/kg to the stomach in 0.5% MC, fasted; for Cmax: po, read-out: Cmax: Maximum concentration
Protocol: Cynomolgus monkeys (male) were used, and the monkeys were fasted from one day before the test compound was administered. The administration sample was prepared by adding a 0.5% MC (methyl cellulose) solution to the test compound such that the dose was 3 mg/2 mL/kg. Each administration sample was administered to the stomach of the cynomolgus monkey using a tube. After the sample was administered, about 5 mL of water was administered. Each administration sample was administered to three cynomolgus monkeys in one group.
As for blood collection, about 1 mL of blood was collected from the femoral vein before administration, and […] 1, 2, 4, 6, 8, 24 and 48 hours after administration using an injection syringe treated with heparin. The collected blood was centrifuged (15,000×g, […], 4° C.) to obtain plasma. The obtained plasma was stored in a freezer (−20° C.) until pretreatment.
Preparation of Standard Solution and Internal Standard (IS) Solution: Each test compound was dissolved in acetonitrile, whereby a 1 mg/mL solution of each test compound was prepared. A standard solution was prepared by diluting each compound solution with acetonitrile. Further, sodium warfarin (Wako Pure Chemical Industries, Ltd.) was dissolved in acetonitrile to prepare a 500 ng/mL IS solution. Pretreatment of Plasma Sample: 50 μL of the plasma sample was taken out and 50 μL of acetonitrile was added thereto. For a calibration curve, 50 μL of each standard solution (acetonitrile solution) was added to 50 μL of the blank plasma. To all the samples, 150 μL of the IS acetonitrile solution was added, and the mixture was stirred, and then centrifuged (about 1,800×g, 30 min, 4° C.). After filtration was performed with Sirocco Protein Precipitation Plate (Waters Corporation), the filtrate was appropriately diluted with a mobile phase to prepare an LC-MS/MS analysis sample. Determination of Test Compound: The plasma concentration of each test compound was analyzed by the LC-MS/MS method. [HPLC Analysis Conditions]
Analysis: A pharmacokinetics parameter was calculated from the plasma concentration of each agent using WinNonlin Professional (Ver. 4.0.1, Pharsight Corporation). Incidentally, Noncompartment model was used as a model for calculation of the parameter.

Structure (SMILES) | pIC50 [1] | Imax [1] [%] | AUC: Area under the plasma concentration versus time curve (0-48 hr.) [2] [ng·h/mL] | Cmax [2] [ng/mL]
Cc1c(C(=O)Nc2ccc(S(C)(=O)=O)cc2)cn(C)c1-c1ccccc1C(F)(F)F (racemic) [Example 1, (+/−)-1,4-dimethyl-N-[4-(methylsulfonyl)phenyl]-5-[2-(trifluoromethyl)phenyl]-1H-pyrrole-3-carboxamide] | 7.89 | 95 | 860 | 42
Cc1c(C(=O)Nc2ccc(S(C)(=O)=O)cc2)cn(CCO)c1-c1ccccc1C(F)(F)F (racemic) [Example 3, (+/−)-1-(2-hydroxyethyl)-4-methyl-N-[4-(methylsulfonyl)phenyl]-5-[2-(trifluoromethyl)phenyl]-1H-pyrrole-3-carboxamide] | – | 105 | 7667 | 380
COc1ccc(-c2c(C)c(C(=O)Nc3ccc(S(C)(=O)=O)cc3)cn2CCO)c(C(F)(F)F)c1 (racemic) [Example 5, (+/−)-1-(2-hydroxyethyl)-5-[4-methoxy-2-(trifluoromethyl)phenyl]-4-methyl-N-[4-(methylsulfonyl)phenyl]-1H-pyrrole-3-carboxamide] | 8.28 | 97 | 33 | 2
Cc1c(C(=O)Nc2ccc(S(C)(=O)=O)cc2)cn(C)c1-c1ccccc1C(F)(F)F (single isomer, unassigned) [Isomer A, (−)-1,4-dimethyl-N-[4-(methylsulfonyl)phenyl]-5-[2-(trifluoromethyl)phenyl]-1H-pyrrole-3-carboxamide] | < 6.00 | – | – | –
Cc1c(C(=O)Nc2ccc(S(C)(=O)=O)cc2)cn(C)c1-c1ccccc1C(F)(F)F (single isomer, unassigned) [Isomer B, (+)-1,4-dimethyl-N-[4-(methylsulfonyl)phenyl]-5-[2-(trifluoromethyl)phenyl]-1H-pyrrole-3-carboxamide] | 8.59 | 123 | 3446 | 184
Cc1c(C(=O)Nc2ccc(S(C)(=O)=O)cc2)cn(CCO)c1-c1ccccc1C(F)(F)F (single isomer, unassigned) [Isomer C, (+)-1-(2-hydroxyethyl)-4-methyl-N-[4-(methylsulfonyl)phenyl]-5-[2-(trifluoromethyl)phenyl]-1H-pyrrole-3-carboxamide] | < 6.00 | – | – | –
Cc1c(C(=O)Nc2ccc(S(C)(=O)=O)cc2)cn(CCO)c1-c1ccccc1C(F)(F)F (single isomer, unassigned) [Isomer D, (−)-1-(2-hydroxyethyl)-4-methyl-N-[4-(methylsulfonyl)phenyl]-5-[2-(trifluoromethyl)phenyl]-1H-pyrrole-3-carboxamide] | 8.62 | 99 | 26390 | 1330
COc1ccc(-c2c(C)c(C(=O)Nc3ccc(S(C)(=O)=O)cc3)cn2CCO)c(C(F)(F)F)c1 (single isomer, unassigned) [Isomer E, (−)-1-(2-hydroxyethyl)-5-[4-methoxy-2-(trifluoromethyl)phenyl]-4-methyl-N-[4-(methylsulfonyl)phenyl]-1H-pyrrole-3-carboxamide] | 8.74 | 115 | 7187 | 681
COc1ccc(-c2c(C)c(C(=O)Nc3ccc(S(C)(=O)=O)cc3)cn2CCO)c(C(F)(F)F)c1 (single isomer, unassigned) [Isomer F, (+)-1-(2-hydroxyethyl)-5-[4-methoxy-2-(trifluoromethyl)phenyl]-4-methyl-N-[4-(methylsulfonyl)phenyl]-1H-pyrrole-3-carboxamide] | < 6.00 | – | – | –
